What was measured:
[1] = test system: rat cortical spreading depression (CSD) model; test: rat cortical spreading depression (CSD) model, KCl-induced; assay type: in vivo; details: female Wistar rats, 10 mg/kg orally once daily for 6 days
Protocol: The following Example provides data from a rat cortical spreading depression (CSD) model, which recapitulates symptoms seen in migraine patients with aura. (2R)-1-((1-(4-(4-Methyl-1H-pyrazol-1-yl)pyridin-3-yl)piperidin-4-yl)carbonyl)pyrrolidine-2-carbonitrile was tested in the CSD model for its potential effects on hyperperfusion events and cortical direct current (DC)-potentials. Adult female Wistar rats from Charles River Germany were used for the experiment. Animals were housed at a standard temperature (22±1° C.) and in a light-controlled environment (lights on from 7 am to 8 pm) with ad libitum access to food and water. Rats were orally treated with vehicle (0.5% methylcellulose in water) or (2R)-1-((1-(4-(4-methyl-1H-pyrazol-1-yl)pyridin-3-yl)piperidin-4-yl)carbonyl)pyrrolidine-2-carbonitrile at the dose of 10 mg/kg once daily for 6 days (n=8). One hour after the last dosing, rats were anesthetized with 5% isoflurane (in 70% N2O and 30% O2; flow 300 ml/min), and placed in a stereotactic frame.
During the operation and CSD the concentration of anesthetic was reduced to 1-1.5%. The rectal temperature was maintained at 37.0±1.0° C. with a homeothermic blanket system. The skin was opened by a medial incision and retracted laterally. Three burr holes were drilled under saline cooling over the right hemisphere at the following coordinates (mm from bregma): (1) posterior 4.5, lateral, 2.0 (occipital cortex): KCl application site; (2) posterior 0.5, lateral 2.0 (parietal cortex) (3) anterior 2, lateral 2 (frontal cortex). A laser-Doppler flow probe (Oxyflow, Oxford Optronics, UK) to monitor cerebral blood flow (CBF) was placed in the parietal cortex burr holes on the intact dura. An invasive Ag/AgCl electrode for measuring DC potential shifts was placed in the frontal cortex burr holes on the intact dura. For the DC-potential measurement, a reference electrode was fixed in the neck. […] The number of KCl-induced CSDs was checked over the period of 2 hours and the number of CBF changes was also measured. […]

[2] = test system: mouse model of chronic post-ischemic pain; test: mouse model of chronic post-ischemic pain (CRPS model), von Frey paw withdraw threshold; assay type: in vivo; details: 30 mg/kg orally once daily for 7 days
Protocol: The following Example provides data from a mouse model of chronic post-ischemic pain, which recapitulates symptoms seen in CRPS patients with peripheral tissue injury and subsequent progression of allodynia. (4-Benzyl-4-hydroxypiperidin-1-yl) (2,4′-bipyridin-3-yl)methanone was tested in the CRPS model for its potential effects on pain. Following 3-hour ischemia and 0.5-hour reperfusion given at a hind limb, mice (C57) were orally treated with (4-benzyl-4-hydroxypiperidin-1-yl) (2,4′-bipyridin-3-yl)methanone at the dose of 30 mg/kg once daily for 7 days (n=8). Paw withdraw threshold was evaluated with von Frey filaments as a behavioral index of mechanical allodynia at 0 h for the base line, 6 h, Days 1, 2, 4 and 7. The cumulative score of paw withdraw threshold over the study period was 17.7 in the sham-treated control group without ischemia/reperfusion injury. In the groups given ischemic injury, the cumulative score was 9.0 and 16.2 for the vehicle control and (4-benzyl-4-hydroxypiperidin-1-yl) (2,4′-bipyridin-3-yl)methanone group, respectively.

[3] = target: NMDA receptors; details: read-out: EC50 as positive allosteric modulator of NMDA receptors; cited from earlier work

Cc1cnn(-c2ccncc2N2CCC(C(=O)N3CCC[C@@H]3C#N)CC2)c1 [(2R)-1-((1-(4-(4-methyl-1H-pyrazol-1-yl)pyridin-3-yl)piperidin-4-yl)carbonyl)pyrrolidine-2-carbonitrile]
CSD events (effect of treatment) [1]: markedly reduced | average number of KCl-induced CSDs ([1]; counted over 2 hours, vehicle 10.00): 4.75 | average number of CBF changes ([1]; over 2 hours, vehicle 22.75): 15.75

O=C(c1cccnc1-c1ccncc1)N1CCC(O)(Cc2ccccc2)CC1 [(4-benzyl-4-hydroxypiperidin-1-yl) (2,4′-bipyridin-3-yl)methanone]
allodynia threshold (effect of treatment) ([2]; C57 mice with ischemic injury): markedly increased | cumulative score of paw withdraw threshold over the study period ([2]; C57 mice, 3-hour ischemia and 0.5-hour reperfusion at a hind limb, von Frey filaments, vehicle 9.0, sham 17.7): 16.2

CC(C)[C@@H](O)CC[C@@H](C)[C@H]1CC[C@H]2[C@@H]3CC=C4C[C@@H](O)CC[C@]4(C)[C@H]3CC[C@]12C [24(S)-hydroxycholesterol]
EC50 [3]: 1200 nM

Source: patent US20210346366A1, “CH24H INHIBITORS FOR PAIN USE” (Takeda Pharmaceutical Company Limited, priority 2018, published 2021)
